Activity calls are given as the source filed them. The calls are words filed in the database; no cut-off is given here.

Test [1] relates to Huh-7. Nature of the test: Upregulation of Caspase 12 expression level in human Huh-7 cells at 2 to 4 uM measured after 48 hrs by Western blot analysis. The class given is functional, cell-based. The settings on record: dose 2-4 µM. Background: In western blotting, separated proteins are transferred to a membrane and probed.
Test [2] has as its system Huh-7. As to the kind of experiment: Induction of apoptosis in human Huh-7 cells assessed as viable cells at 8 uM measured after 48 hrs by Annexin V-PE staining based flow cytometry analysis (reference value: 93.69%). Type of test: functional. The settings on record: read-out: Activity. On the technique in general: Flow cytometry measures light scatter and fluorescence of single cells or particles in a stream.

Test [3] relates to Huh-7. Nature of the test: Induction of apoptosis in human Huh-7 cells assessed as late apoptotic cells at 8 uM measured after 48 hrs in presence of Z-VAD by Annexin V-PE staining based flow cytometry analysis (reference value: 2.06%). The class given is functional.
The subject of test [4] is Huh-7. Nature of the test: Induction of apoptosis in human Huh-7 cells assessed as early apoptotic cells at 2 uM measured after 48 hrs by Annexin V-PE staining based flow cytometry analysis (reference value: 0.88%). The class given is functional.
Test [5] concerns Huh-7. Nature of the test: Upregulation of Bax protein level in human Huh-7 cells at 2 to 4 uM by Western blot analysis. The class given is functional, cell-based. The settings on record: dose 2-4 µM.
In test [6] the test system is Huh-7. As to the kind of experiment: Upregulation of Cytochrome C level in human Huh-7 cells at 2 to 4 uM by Western blot analysis. Type of test: functional, cell-based. The settings on record: dose 2-4 µM.
Test [7] concerns Huh-7. Nature of the test: Induction of apoptosis in human Huh-7 cells assessed as necrotic cells at 2 uM measured after 48 hrs by Annexin V-PE staining based flow cytometry analysis (reference value: 3.37%). The class given is functional.
Test [8] concerns Huh-7. As to the kind of experiment: Induction of apoptosis in human Huh-7 cells assessed as late apoptotic cells at 4 uM measured after 48 hrs by Annexin V-PE staining based flow cytometry analysis (reference value: 2.06%). Type of test: functional.
In test [9] the test system is Huh-7. Nature of the test: Induction of ER stress in human Huh-7 cells assessed as increase in GRP78 protein level at 4 uM incubated for 48 hrs in presence of 4pba by Western blot analysis. The class given is functional, cell-based.
For a further test, the system named is MDA-MB-231. As to the kind of experiment: Antiproliferative activity against human MDA-MB-231 cells measured after 48 hrs by MTT assay. The class given is functional, cell-based. As to conditions: MDA-MB-231, 48 h.
Test [10] has as its system Huh-7. As to the kind of experiment: Induction of ER stress in human Huh-7 cells assessed as increase in ATF6 protein level at 4 uM incubated for 48 hrs in presence of 4pba by Western blot analysis. The class given is functional, cell-based.

The IC50 is the concentration needed to halve the response being measured. Read a low IC50 as inhibition by little substance. On to `COc1ccc(COc2cccc3c2C(=O)c2c(OCc4ccc(OC)cc4)cc(C(=O)NCCNCCO)cc2C3=O)cc1`, for which the outcome in the test on Huh-7 [1], in the test with Huh-7 [5] and in the test on Huh-7 [6] was Active. Besides, the viability at 8 µM in the test with Huh-7 [2] was 23.7%. For the same compound, the Activity is reported as 4.41% in the test on Huh-7 [3], 65.4% in the test on Huh-7 [4], 6.06% with Huh-7 [7] and 7.59% in the test on Huh-7 [8]. The outcome with Huh-7 [9] and with Huh-7 [10] was inactive. The midpoint of inhibition in the test with MDA-MB-231, the IC50, lay at 600 nM.
